The results in this text go back to BindingDB's records for doi:10.1021/jm00348a025 (1982).

Assay [1] has as its target Alkaline phosphatase, tissue-nonspecific isozyme (Homo sapiens) (UniProt P05186). Nature of the assay: Concentration required for 50% inhibition of human leukocyte alkaline phosphatase in the presence of 10 mM p-nitrophenyl phosphate as substrate.
The target is the same in assay [2]. Described as above. The source holds these as a separate data set.

Molecules are shown by their SMILES.

Sequence of Alkaline phosphatase, tissue-nonspecific isozyme (Homo sapiens) (P05186 whole entry, looked up): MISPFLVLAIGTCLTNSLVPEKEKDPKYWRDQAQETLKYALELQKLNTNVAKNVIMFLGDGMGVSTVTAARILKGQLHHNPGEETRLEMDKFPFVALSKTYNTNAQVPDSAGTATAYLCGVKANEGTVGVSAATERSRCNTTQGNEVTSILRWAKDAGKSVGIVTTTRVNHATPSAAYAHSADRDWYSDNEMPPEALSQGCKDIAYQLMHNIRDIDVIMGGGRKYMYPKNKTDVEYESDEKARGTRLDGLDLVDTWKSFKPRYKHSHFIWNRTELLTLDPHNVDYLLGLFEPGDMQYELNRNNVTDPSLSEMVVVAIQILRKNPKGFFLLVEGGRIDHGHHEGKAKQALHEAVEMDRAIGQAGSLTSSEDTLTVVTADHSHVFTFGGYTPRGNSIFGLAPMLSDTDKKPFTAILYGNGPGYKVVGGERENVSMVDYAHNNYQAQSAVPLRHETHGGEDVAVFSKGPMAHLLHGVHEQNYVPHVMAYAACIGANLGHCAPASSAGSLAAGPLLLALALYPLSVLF

On to `CCCCc1cc2c(O)cc(C(=O)O)nc2c2c(O)cc(C(=O)O)nc12`, for which the IC50 in assay [1] is 970 µM.
On to `O=C(O)c1ccc2nc3ccc(O)cc3c(=O)n2c1`, for which the IC50 in assay [2] was determined as 340 µM.
For the compound `CCCOc1ccccc1-c1nc2nn[nH]c2c(=O)[nH]1` [5-(2-propoxyphenyl)-2H,3H,7H-[1,2,3]triazolo[4,5-d]pyrimidin-7-one], the IC50 in assay [2] was determined as 1750 µM.
Consider `O=C(O)c1cc(=O)c2c(OCC(O)COc3cccc4oc(C(=O)O)cc(=O)c34)cccc2o1` [Crolom], for which the concentration for half-maximal inhibition (IC50) in assay [1] was 9680 µM.
